Data taken from paper PMC4421842 (Nature Communications, 2015).
In brackets after ≈: the same amount, converted by molar mass.

Assays:
[1] = test system: WT S. aureus (ATCC 29213, WT); assay: microbe, parasite or virus in culture; type: cell-based; details: WT GyrA and WT ParC, three independent replicates
[2] = Aqueous solubility determination; details: PBS, pH 7.4
Procedure: Three independent replicates of each compound were performed.

[3] = test system: FQR S. aureus (NRS3, FQR); assay: MIC, microdilution broth assay, FQR MRSA NRS3; type: cell-based; details: NRS3; S84L GyrA and S80F ParC; three independent replicates
[4] = parameters: method as in PMID 24545057; details: dosed subcutaneously, orally or by intraperitoneal injection; cited from earlier work
[5] = test system: K. pneuomoniae, S. aureus or Mycobacterium tuberculosis; parameters: method as in PMID 24545057; details: cited from earlier work

In the case of `CCCc1cc(=O)n(C)c2c3c4c(cc12)c(CCC)cc(=O)n4CO3` [compound 14], the “MIC against S. aureus 29213” value ([1]; ATCC 29213) is reported as greater than 32 µg/mL, the MIC ([1]; Staphylococcus aureus, ATCC29213, ATCC 29213, read-out: MIC against S. aureus 29213) is reported as greater than 32 µg/mL and the solubility at 1 h [2] is reported as less than 1 µM. The “MIC against S. aureus NRS3” value [3] was 32 µg/mL (≈ 94.6 µM).

In the case of `Cc1cc(=O)n2c3c(c4c(cc13)c(CO)cc(=O)n4C)OC2` [NM, Nybomycin], the tolerability in mice [4] is listed as “well tolerated” and the “activity in mice infected with various bacteria” value [5] is listed as “no activity”.
